# Reference: the SangsterLogP compilation
row,logP,SMILES
1,3.61,CCN(CC)CCOC(=O)/C=C/c1ccccc1
2,1.79,O=C(O)/C=C/c1ccc(O)cc1
3,2.56,CCOC(=O)/C=C/c1ccc(O)c(O)c1
4,1.87,COc1cc(C=CC(=O)O)ccc1O
5,4.45,O=C(C=Cc1ccccc1)OCC=Cc1ccccc1
6,2.84,CCN(CC)CCOC(=O)/C=C/c1cc(OC)c(OC)c(OC)c1
7,2.34,COc1ccc(C=CC(=O)O)cc1OC
8,3.52,CCN(CC)CCOC(=O)/C=C/c1ccc(F)cc1
9,2.88,CCN(CC)CCOC(=O)C=Cc1ccc(OC)c(OC)c1
10,2.22,COC(=O)/C=C/c1ccc(O)c(O)c1
11,2.68,COc1ccc(/C=C/C(=O)O)cc1
12,3.15,O=C(O)C=CC=Cc1ccccc1

row,SMILES,logP
1,O=C(O)/C=C/c1ccc2c(c1)OCO2,2.59
